{"source": "paper PMC9741652", "about": "“CRL2^ZER1/ZYG11B recognizes small N-terminal residues for degradation” (Nature Communications, 2022)", "key": {"[1]": {"biological_target": "T1, ZER1 W552A (residues 469–766) (Homo sapiens, UniProt Q7Z7L7, W552A)", "T1 construct": "wild-type (WT) and mutant ZER1 (residues 469–766) titrated with SFLHVGQD peptide; made in house; host or cells: E. coli BL21 (DE3)", "T1 sequence (Q7Z7L7 469-766 W552A)": "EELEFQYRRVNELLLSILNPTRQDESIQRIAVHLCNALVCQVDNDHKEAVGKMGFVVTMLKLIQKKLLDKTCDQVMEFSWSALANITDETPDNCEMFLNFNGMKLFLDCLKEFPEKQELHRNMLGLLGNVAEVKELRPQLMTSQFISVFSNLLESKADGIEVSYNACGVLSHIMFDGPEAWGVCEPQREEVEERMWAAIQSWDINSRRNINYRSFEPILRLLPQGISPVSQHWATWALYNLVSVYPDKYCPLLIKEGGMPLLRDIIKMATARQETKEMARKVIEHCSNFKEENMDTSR", "experiment": "ITC of peptides with mutant ZER1 W552A", "conditions": "mutant ZER1 residues 469–766, NB = no detectable binding", "from_the_text": "(§1) To verify the functional importance of the residues involved in substrate binding, we generated single-point mutants of the binding pocket residues in ZER1 and ZYG11B. […] In addition, mutating the third-residue-interacting N553 into alanine caused a significant reduction in substrate binding (Fig. 3e, and Supplementary Fig. 4a–c).\n(§2) ZYG11B (residues 490–728) bearing an N-terminal SELF generated by a modified pET28-MKH8SUMO (Addgene Plasmid #79526) vector and ZER1 (residues 469–766) bearing an N-terminal MEEL sequence generated by pNIC-CH (Addgene Plasmid #26117) vector were used to perform isothermal titration calorimetry (ITC) assays, as previously described. Proteins (concentration 50–70 μM) and peptides (concentration 0.5–1.5 mM) solutions were prepared in an ITC buffer consisting of 20 mM Tris-HCl (pH 7.5) and 150 mM NaCl. The ITC measurements were recorded at 16 °C with a MicroCal PEAQ-ITC instrument (Malvern Panalytical). 1.5 μL of each peptide (except for first injection using 0.5 μL peptide) was titrated into a 300 μL cell of the protein with 120 s incubation time between the injections. The reference power was controlled at […]. The acquired data were analyzed using MicroCal PEAQ-ITC Analysis Software version 1.30. Each experiment was repeated at least twice independently with similar results."}, "[2]": {"biological_target": "T2, ZER1 D556A (residues 469–766) (Homo sapiens, UniProt Q7Z7L7, D556A)", "T2 construct": "wild-type (WT) and mutant ZER1 (residues 469–766) titrated with SFLHVGQD peptide; made in house; host or cells: E. coli BL21 (DE3)", "T2 sequence (Q7Z7L7 469-766 D556A)": "as the sequence (Q7Z7L7 469-766 W552A) above, with A84W, D88A counted along it", "experiment": "ITC of peptides with mutant ZER1 D556A", "format": "binding", "conditions": "mutant ZER1 residues 469–766", "from_the_text": "as §1, §2"}, "[3]": {"biological_target": "T3, ZER1 N597A (residues 469–766) (Homo sapiens, UniProt Q7Z7L7, N597A)", "T3 construct": "wild-type (WT) and mutant ZER1 (residues 469–766) titrated with SFLHVGQD peptide; made in house; host or cells: E. coli BL21 (DE3)", "T3 sequence (Q7Z7L7 469-766 N597A)": "as the sequence (Q7Z7L7 469-766 W552A) above, with A84W, N129A counted along it", "experiment": "ITC of peptides with mutant ZER1 N597A", "conditions": "mutant ZER1 residues 469–766, NB = no detectable binding", "from_the_text": "as §1, §2"}, "[4]": {"biological_target": "T4, ZER1 E600A (residues 469–766) (Homo sapiens, UniProt Q7Z7L7, E600A)", "T4 construct": "wild-type (WT) and mutant ZER1 (residues 469–766) titrated with SFLHVGQD peptide; made in house; host or cells: E. coli BL21 (DE3)", "T4 sequence (Q7Z7L7 469-766 E600A)": "as the sequence (Q7Z7L7 469-766 W552A) above, with A84W, E132A counted along it", "experiment": "ITC of peptides with mutant ZER1 E600A", "format": "binding", "conditions": "mutant ZER1 residues 469–766", "from_the_text": "as §1, §2"}, "[5]": {"biological_target": "T5, ZYG11B (residues 490–728) (Homo sapiens, UniProt Q9C0D3)", "T5 construct": "ZYG11B (residues 490–728) bearing an N-terminal SELF; 8xHis-SUMO (N, cleaved yes); made in house; host or cells: E. coli BL21 (DE3)", "T5 sequence (Q9C0D3 490-728)": "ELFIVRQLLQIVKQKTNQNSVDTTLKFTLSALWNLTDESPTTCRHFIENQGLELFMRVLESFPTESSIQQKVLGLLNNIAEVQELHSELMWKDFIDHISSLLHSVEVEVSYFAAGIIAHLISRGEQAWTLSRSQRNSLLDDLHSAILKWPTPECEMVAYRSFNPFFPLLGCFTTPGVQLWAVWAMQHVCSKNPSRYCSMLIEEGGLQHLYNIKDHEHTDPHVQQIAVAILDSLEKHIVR", "experiment": "ITC of peptides titrated into ZYG11B", "conditions": "ZYG11B residues 490–728, 20 mM Tris-HCl pH 7.5, 150 mM NaCl, 16 °C, repeated at least twice, NB = no detectable binding", "from_the_text": "(§3) To further investigate the binding specificity of ZER1 and ZYG11B, we synthesized a set of eight-residue peptides (sequence: XFLHVGQD, X = any free Nt-residue), and carried out isothermal titration calorimetry (ITC) assays to quantify their binding affinities for ZER1 and ZYG11B. […] The rest of Nt-residues were disallowed for the binding to both ZER1 and ZYG11B (Fig. 1e, and Supplementary Fig. 1c–f).\nas §2"}, "[6]": {"biological_target": "T6, ZER1 (residues 469–766) (Homo sapiens, UniProt Q7Z7L7)", "T6 construct": "made in house; host or cells: E. coli BL21 (DE3)", "T6 sequence (Q7Z7L7 469-766)": "as the sequence (Q7Z7L7 469-766 W552A) above, with A84W counted along it", "experiment": "ITC of peptides titrated into ZER1", "format": "binding", "conditions": "wild-type ZER1 residues 469–766", "from_the_text": "as §3, §2"}}, "note": "No end group written: not given here."}
{"substance": "SFLHVGQD [SFLHVGQD]", "values": [{"measurement": "Kd", "setting": "[1]", "value": "> 100", "unit": "µM"}, {"measurement": "Kd", "setting": "[2]", "value": "> 100", "unit": "µM"}, {"measurement": "Kd", "setting": "[3]", "value": "> 100", "unit": "µM"}, {"measurement": "Kd", "setting": "[4]", "value": "> 100", "unit": "µM"}]}
{"substance": "H-VFLHVGQD [VFLHVGQD]", "values": [{"measurement": "Kd", "setting": "[5]", "value": "> 100", "unit": "µM"}]}
{"substance": "SGRGKQGGKA [H2A peptide]", "values": [{"measurement": "binding to ZER1, in words", "setting": "[6]", "value": "readily bind"}]}
